How the values were obtained:
[1] = target: T1, ATP-binding cassette sub-family C member 2 (Rattus norvegicus, UniProt Q63120); experiment: TP_TRANSPORTER: biliary excretion in SD rat; assay type: functional, organism-based, Sprague-Dawley, Bile; conditions: in vivo
[2] = target: T1, ATP-binding cassette sub-family C member 2; experiment: TP_TRANSPORTER: biliary excretion in EHBR rat; assay type: functional, organism-based, Bile; conditions: in vivo

T1 sequence (Q63120 whole entry): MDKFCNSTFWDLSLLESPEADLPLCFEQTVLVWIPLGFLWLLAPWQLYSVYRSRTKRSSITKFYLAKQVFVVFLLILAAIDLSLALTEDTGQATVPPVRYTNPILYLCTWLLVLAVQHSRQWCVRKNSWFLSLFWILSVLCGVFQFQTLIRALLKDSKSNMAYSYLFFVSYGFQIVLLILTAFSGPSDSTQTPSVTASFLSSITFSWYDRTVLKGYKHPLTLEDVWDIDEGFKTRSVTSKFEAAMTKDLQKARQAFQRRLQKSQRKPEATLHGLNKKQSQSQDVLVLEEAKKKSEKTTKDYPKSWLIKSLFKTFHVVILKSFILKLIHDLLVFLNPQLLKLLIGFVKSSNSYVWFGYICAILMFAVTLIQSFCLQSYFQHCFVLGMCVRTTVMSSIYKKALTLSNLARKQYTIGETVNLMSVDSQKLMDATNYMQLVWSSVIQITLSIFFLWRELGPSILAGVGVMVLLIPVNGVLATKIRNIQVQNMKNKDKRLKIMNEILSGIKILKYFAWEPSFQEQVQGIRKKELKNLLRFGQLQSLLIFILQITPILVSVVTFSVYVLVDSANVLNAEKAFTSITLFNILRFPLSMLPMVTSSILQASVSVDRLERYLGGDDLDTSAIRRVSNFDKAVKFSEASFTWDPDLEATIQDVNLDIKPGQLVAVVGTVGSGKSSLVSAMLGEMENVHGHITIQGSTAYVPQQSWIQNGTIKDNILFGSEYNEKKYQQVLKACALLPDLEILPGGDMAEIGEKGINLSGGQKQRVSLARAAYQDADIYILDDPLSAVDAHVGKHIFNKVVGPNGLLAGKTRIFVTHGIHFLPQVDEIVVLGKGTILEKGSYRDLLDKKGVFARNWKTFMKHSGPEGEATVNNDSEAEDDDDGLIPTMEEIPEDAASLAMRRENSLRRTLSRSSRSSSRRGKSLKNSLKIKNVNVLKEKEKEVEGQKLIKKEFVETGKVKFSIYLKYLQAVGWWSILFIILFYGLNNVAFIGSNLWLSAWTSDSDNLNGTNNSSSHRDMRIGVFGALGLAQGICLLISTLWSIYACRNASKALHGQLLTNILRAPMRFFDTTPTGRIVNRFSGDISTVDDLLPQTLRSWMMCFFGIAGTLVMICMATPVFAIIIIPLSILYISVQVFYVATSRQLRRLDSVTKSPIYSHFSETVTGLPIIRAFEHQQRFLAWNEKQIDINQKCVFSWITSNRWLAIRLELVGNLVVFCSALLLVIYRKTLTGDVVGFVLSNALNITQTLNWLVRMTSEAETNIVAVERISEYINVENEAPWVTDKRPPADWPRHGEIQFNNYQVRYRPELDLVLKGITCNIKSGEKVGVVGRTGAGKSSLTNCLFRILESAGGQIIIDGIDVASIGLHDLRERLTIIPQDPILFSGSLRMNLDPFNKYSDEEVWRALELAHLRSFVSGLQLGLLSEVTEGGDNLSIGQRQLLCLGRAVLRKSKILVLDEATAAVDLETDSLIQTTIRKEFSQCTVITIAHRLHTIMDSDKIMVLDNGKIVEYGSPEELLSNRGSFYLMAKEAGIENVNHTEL

Activity [1]: substrate [+]
Activity [2]: substrate [+]
SMILES: O=C1CC(c2ccc(O[C@@H]3O[C@H](C(=O)O)[C@@H](O)[C@H](O)[C@H]3O)cc2)Oc2cc(O)ccc21 (some centres not stated) [LIQUIRTIGENIN GLUCURONIDE]
